Measurements taken from paper PMC11404609, “Gut microbiota-mediated C-sulfonate metabolism impairs the bioavailability and anti-cholestatic efficacy of andrographolide” (Gut Microbes, 2024).
Structures can show the parent of a compound that is named as a salt. Where two headings read alike, the source gives them in different places.

Assays:
[1] = set-up: method as in PMID 21721007; details: AP incubated with rat duodenal perfusate; cited from earlier work
[2] = Tissue distribution of AP and APM in rats; assay type: in vivo
Protocol: (§1) Control and ABX rats were orally administered a single dose of AP at 120 mg/kg. Control, ABX and germ-free C57BL/6J mice were orally administered a single dose of AP at 100 mg/kg. After 90 min of AP administration, all animals were euthanized, and blood and tissue samples were collected for subsequent analysis.
(§2) An ACQUITY^TM UPLC-MS/MS system equipped with an ACQUITY^TM UPLC BEH C18 Column (50 × 2.1 mm I.D., 1.7 μm, Waters, Milford, MA, USA) was utilized for the quantification of AP and APM as previously described.[47] Briefly, the detection samples (50 μL) were mixed with 50 μL of IS (50 ng/mL). AP and APM were extracted by 400 μL cold methanol. Supernatants were dried under nitrogen stream. Then, the residue was dissolved with 50% methanol in water, centrifuged for 30 min at 13,000 rpm, and 10 µL of the supernatant was subjected to UPLC-MS/MS analysis. The mobile phases consisted of eluent A (water) and eluent B (methanol) with a gradient elution as follows: 0–0.8 min, 10% B; 0.8–1.2 min, 10–90% B; 1.2–5.0 min, 90% B; 5.0–5.5 min, 90–10% B; 5.5–7.0 min, 10% B. The flow rate was 0.3 mL/min and the injection volume of all samples was 10 μL. The quantification of AP, APM and IS was performed by UPLC-MS/MS using an MRM method with the transitions of m/z 349.1→m/z 287.2 for AP, m/z 413.2→m/z 287.2 for APM, m/z 269→m/z 133 for IS.
(§3) AP was administered intravenously and orally to detect the production of the C-sulfonate metabolite APM. In tissue distribution experiment, rats were given AP intravenously (24 mg/kg) or orally (120 mg/kg), while mice received AP intravenously (20 mg/kg) or orally (100 mg/kg). After a 90-minute interval, the animals were sacrificed, and their liver, kidneys, small intestine, and colon were collected for analysis. In pharmacokinetic studies, rats were administered 24 mg/kg of AP intravenously or 120 mg/kg of AP by oral gavage. Blood samples were collected at predetermined time intervals (0, 5, 10, 20, 30, 40, 60, 90, 120, 180, 240, 360, and 480 min), as described, to detect the content of AP and APM by UPLC-MS/MS.

[3] = AP incubation with duodenal perfusate; assay type: in vitro ADME, rat; details: AP 40 μM
Protocol: To investigate whether HSO3^- is the essential ligand for the C-sulfonate metabolism of AP, duodenal perfusate of SD rat was collected according to the method described in the literature^5. The duodenal perfusate was filtered by 0.22 μm Millex® needle filter, ultrafiltered by Amicon® Ultra filter or placed in an autoclave at 121°C for 2 hours, and then incubated with AP (40 μM) in vitro for 30, 60, 90 and 120 min. In another experiment, duodenal perfusate was autoclaved and then combined with HSO3^- (80 μM) and incubated with AP (40 μM) in vitro for 120 min. At the end of the incubation, 100 μL of ice-cold acetonitrile was quickly added to terminate the reaction. After centrifugation at 13000 rpm for 30 min, the supernatant was collected for UPLC-MS/MS analysis.

[4] = Tissue distribution of AP and APM in mice; assay type: in vivo
Protocol: as §1
After 360 min of AP treatment, all mice were euthanized, and tissue samples were collected for subsequent analysis. […]
as §2, §3

[5] = set-up: method as in PMID 36809835, PMID 34142342; details: dose-dependent increase; cited from earlier work
HSO3^− = HSO3^− concentration in the cecum; assay type: in vivo; details: mice
Protocol: Mice were orally administered APS reductase inhibitor bromocriptine mesylate (20 mg/kg, p.o.) or Na2SO4 (200 mg/kg, p.o.) or saline solution 1 week before AP treatment (a single dose of AP at 100 mg/kg, p.o.). After 360 min of AP treatment, all mice were euthanized, and tissue samples were collected for subsequent analysis. In specific cases, mice were orally administered D. piger suspension (0.2 mL, 1 × 10^9 CFU/mL) or saline solution 2 weeks before AP treatment (a single dose of AP at 100 mg/kg, p.o.).
(§4) For the determination of APS reductase concentration, the supernatant from mouse cecum contents and the D. piger strain were assessed using microorganism APS reductase elisa assay kit (Shanghai Senxingyan Biotechnology Co., Ltd., China), following the instructions provided with the kit. For the determination of HSO3^− concentration, cecum contents from mice or rats were weighed and homogenized in five volumes of normal saline (based on tissue weight). The homogenate was then subjected to centrifugation at 13,000 rpm and 4°C for 15 min. The supernatant (or perfusate) was collected and mixed with 0.2% formaldehyde, 0.05% basic fuchsin, and 0.01% EDTA-Na2 in a ratio of 1:1:1:9 under acidic conditions. To establish a standard curve, different concentrations of NaHSO3 were used. Subsequently, the absorbance of the resulting solutions was measured at a wavelength of 560 nm after 40 min.

D. piger = assay type: in vitro ADME, Desulfovibrio piger; details: D. piger with inhibitor
Protocol: The cecum contents from mice were collected and mixed with sterilized anaerobic medium in a ratio of 1.0 g to 10 mL, with gentle agitation. After filtered, the mixed medium containing the intestinal flora was placed in an anaerobic environment and preincubated at 37°C for 30 min before use. Mixed medium with or without APS reductase inhibitor bromocriptine mesylate (20 μg/mL) was incubated with AP (10 μg/mL), while autoclaved mixed medium without APS reductase inhibitor served as the control. Incubation was performed in a shaking incubator at 37°C for 6 h, with strict maintenance of anaerobic condition throughout the process.[44] Similarly, D. piger (0.2 mL, 1 × 10^8 CFU/mL) with or without inhibitor, was incubated with AP for 0, 3, 6, and 12 h, with autoclaved D. piger without inhibitor serving as the control. […] And then samples were analyzed by UPLC-MS/MS to detect the concentrations of AP and APM. Concentrations of APS reductase and HSO3^− were also determined at the end of incubation.
For the determination of APS reductase concentration, the supernatant from mouse cecum contents and the D. piger strain were assessed using microorganism APS reductase elisa assay kit (Shanghai Senxingyan Biotechnology Co., Ltd., China), following the instructions provided with the kit. […] Subsequently, the absorbance of the resulting solutions was measured at a wavelength of 560 nm after 40 min.

APS reductase = APS reductase level in feces by qPCR; assay type: in vivo; details: mice feces, bromocriptine mesylate 20 mg/kg p.o.
Protocol: Total RNA from frozen livers of Vehicle, AP (200 mg/kg, i.p.), ANIT (50 mg/kg), and ANIT+AP (200 mg/kg, i.p.) groups was extracted using the Animal Total RNA Isolation Kit (FOREGENE, China). cDNA was synthesized using a Color Reverse Transcription Kit (EZBioscience, Roseville, CA, USA). qPCR was performed using SYBR green/Rox qPCR master mix (EZBioscience, Roseville, CA, USA), according to the manufacturer’s instruction. The expression of target genes was normalized to β-actin, and fold changes were calculated using 2^–ΔΔCT method. For bacterial identification, genomic DNA of fecal flora was isolated using the TIANamp Stool DNA Kit (TIANGEN, Beijing, China) and qPCR was performed. The relative abundance and expression of Desulfovibrio spp., D. piger and APS reductase were normalized to the amounts of total bacteria (16S). All primers were synthesized by Tsingke Biotechnology Co., Ltd. (Beijing, China) and were listed in Supplementary Table S1.

[6] = Safety of APS reductase inhibitor (liver, renal, blood lipid indicators); assay type: in vivo; details: mice, 20 mg/kg orally for 14 days
Protocol: Supplementary Figure 5. […] (A-D) Liver function indicators including ALT, AST, TBA, and TBIL. (E-G) Renal function indicators including CREA, UREA, and UA. (H-K) Blood lipid indicators including TG, TC, HDL-C, and LDL-C. Inhibitor refers to the treatment with the APS reductase inhibitor bromocriptine mesylate at a dosage of 20 mg/kg, administered orally for 14 days in mice. Data are presented as mean ± SEM (n = 8 per group).

intestinal flora of mice = assay: Co-culturing AP with cecum samples from mice; assay type: in vitro ADME; details: bromocriptine mesylate 20 μg/mL
Protocol: The cecum contents from mice were collected and mixed with sterilized anaerobic medium in a ratio of 1.0 g to 10 mL, with gentle agitation. After filtered, the mixed medium containing the intestinal flora was placed in an anaerobic environment and preincubated at 37°C for 30 min before use. Mixed medium with or without APS reductase inhibitor bromocriptine mesylate (20 μg/mL) was incubated with AP (10 μg/mL), while autoclaved mixed medium without APS reductase inhibitor served as the control. Incubation was performed in a shaking incubator at 37°C for 6 h, with strict maintenance of anaerobic condition throughout the process.[44] Similarly, D. piger (0.2 mL, 1 × 10^8 CFU/mL) with or without inhibitor, was incubated with AP for 0, 3, 6, and 12 h, with autoclaved D. piger without inhibitor serving as the control. The reaction was terminated by adding cold methanol contained IS. And then samples were analyzed by UPLC-MS/MS to detect the concentrations of AP and APM. Concentrations of APS reductase and HSO3^− were also determined at the end of incubation.
as §4

SMILES: C=C1CCC2C(C)(CO)C(O)CCC2(C)C1CC(C1=CCOC1=O)S(=O)(=O)O [APM, 14-deoxy-12(R)-sulfo andrographolide]
- APM generation [1]: large amounts
- levels of APM in plasma and tissues ([2]; ABX-treated rats vs Control, AP 120 mg/kg oral): reduced levels
- APM in all tissues ([2]; rats, oral administration of AP (120 mg/kg)): significant amount of APM was detected
- APM in the intestine, liver, and kidneys ([2]; rats, tail vein administration of AP (24 mg/kg)): undetectable
- APM generation ([3]; autoclaved duodenal perfusate): not detectable
- APM generation ([3]; autoclaved perfusate with addition of HSO3^− (80 μM), 120 min): production of APM
- APM generation ([3]; duodenal perfusate after filtration and ultrafiltration): continued APM generation
- concentration of APM in tissues ([4]; ABX-treated mice vs Control, AP 100 mg/kg oral): decreased
- concentration of APM in tissues ([4]; mice colonized with D. piger vs Control, AP 100 mg/kg p.o.): increase
- level of APM in the intestine and liver ([4]; mice of pharmacological experiment, AP 200 mg/kg, following ABX treatment vs Control): decreased significantly
- APM within the small intestine and liver ([4]; mice, AP 200 mg/kg p.o. with APS reductase inhibitor vs without): decrease
- APM in all tissues ([4]; mice, oral administration of AP (100 mg/kg)): significant amount of APM was detected
- APM in the intestine, liver, and kidneys ([4]; mice, tail vein administration of AP (20 mg/kg)): undetectable

SMILES: CC[C@H]1[C@@H](O)[C@@H]2[C@H](CC[C@]3(C)[C@@H]([C@H](C)CCC(=O)O)CC[C@@H]23)[C@@]2(C)CC[C@@H](O)C[C@@H]12 [OCA, obeticholic acid]
- pruritus, share of treated patients [5]: roughly 40%

SMILES: O=S(=O)([O-])[O-].[Na+].[Na+] [Na2SO4, sodium sulfate]
- HSO3^− content in the cecum (HSO3^−; Na2SO4 200 mg/kg p.o.): significant increase

SMILES: CC(C)C[C@H]1C(=O)N2CCC[C@H]2[C@]2(O)O[C@](NC(=O)[C@@H]3C=C4c5cccc6[nH]c(Br)c(c56)C[C@H]4N(C)C3)(C(C)C)C(=O)N12 [bromocriptine mesylate]
- effect on D. piger metabolism of AP into APM (APS reductase and HSO3^− production) (D. piger): significantly inhibited
- APS reductase level (APS reductase): decrease
- damage to organism (liver function, renal function, blood lipid indicators) [6]: did not induce damage to organism
- HSO3^− content in the cecum (HSO3^−; bromocriptine mesylate 20 mg/kg p.o.): decrease
- effect on conversion of AP into APM by the intestinal flora (intestinal flora of mice; AP 10 μg/mL, 6 h): effectively impeded
- concentrations of APS reductase and HSO3^− (intestinal flora of mice; co-culture of AP with cecum samples): significant decrease
